Data set [1] deals with T1, Indoleamine 2,3-dioxygenase 1 (Homo sapiens, UniProt P14902). The data set is described as follows: Inhibition of IDO1 (unknown origin).
For another data set, the system named is Plasmodium falciparum. Put plainly: Antimalarial activity against chloroquine-sensitive Plasmodium falciparum 3D7 infected in erythrocytes assessed as reduction in parasite growth preincubated for 48 hrs followed by addition of [3H]Hypoxanthine and measured after 24 hrs by radiometric method. It counts as functional, organism-based.
Data set [2] addresses T1, Indoleamine 2,3-dioxygenase 1. Put plainly: Inhibition of recombinant human IDO1 expressed in Escherichia coli assessed as reduction in formation of kynurenine using L-tryptophan as substrate by methylene blue staining based assay.
Data set [3] can be described thus: Half life in human cancer patient at 2000 mg bid for 28 days by LC-MS method. It counts as ADME. The note with it: in vivo.
Data set [4] is described as follows: Tmax in human cancer patient at 2000 mg bid for 28 days by LC-MS method. It counts as ADME. The note with it: in vivo.
Data set [5] concerns the target T1, Indoleamine 2,3-dioxygenase 1. The data set is described as follows: Inhibition of IDO1 in IFNgamma-indced human HeLa cells incubated for 48 hrs using L-tryptophan as substrate by colorimetric analysis. It counts as cell-based.
Data set [6] shares this target. Put plainly: Inhibition of recombinant human IDO1 using L-tryptophan as substrate preincubated for 15 mins followed by substrate addition by methylene blue staining based spectrometric method.
For data set [7] the target is unchanged. Put plainly: Inhibition of IDO1 in HEK293 cells assessed as reduction in L-kynurenine formation incubated for 48 hrs using L-tryptophan as substrate. It counts as cell-based.
Data set [8] has as its target T2, Indoleamine 2,3-dioxygenase 1 (Mus musculus, UniProt P28776). The data set is described as follows: Inhibition of mouse IDO1 expressed in COS1 cells assessed as reduction in N-formyl-kynurenine level incubated for 16 hrs. It counts as cell-based.
For data set [9], the target named is T1, Indoleamine 2,3-dioxygenase 1. The data set is described as follows: Inhibition of human IDO1 expressed in COS1 cells assessed as reduction in N-formyl-kynurenine level incubated for 16 hrs. It counts as cell-based.
Data set [10] has the same target. The data set is described as follows: Inhibition of recombinant human His6-tagged IDO1 expressed in Escherichia coli BL21DE3pLysS cells assessed as reduction in N-formyl-kynurenine level using L-tryptophan as substrate incubated for 60 mins.
For data set [11] the target is unchanged. The data set is described as follows: Inhibition of recombinant human IDO1 expressed in Escherichia coli assessed as reduction in formation of kynurenine using L-tryptophan as substrate measured after 30 mins.
In data set [12] the test system is Homo sapiens. The data set is described as follows: In vivo inhibition of IDO1 in human patient assessed as reduction in Serum kynurenine level at 25 to 200 mg, po qd for 2 weeks co-treated with nivo-lumab relative to control. It counts as functional.
Data set [13] concerns Homo sapiens. The data set is described as follows: In vivo inhibition of IDO1 in human patient assessed as reduction in Serum kynurenine level at 100 to 200 mg, po qd for 2 weeks co-treated with nivo-lumab relative to control. It counts as functional.
A further data set has as its system A549. The data set is described as follows: Cytotoxicity against human A549 cells assessed as growth inhibition after 72 hrs by MTT assay. It counts as functional. The note with it: A549, 72 h. A general note: Formazan colour is commonly taken as a measure of viable cells.
Another data set concerns Jurkat. Put plainly: Cytotoxicity against human Jurkat cells assessed as growth inhibition after 72 hrs by MTT assay. It counts as functional.
Data set [14] has as its target T2, Indoleamine 2,3-dioxygenase 1. The data set is described as follows: Inhibition of mouse IDO1 expressed in Escherichia coli Rosetta (DE3) cells.
Data set [15] is described as follows: Antitumour activity in mouse B16 cells pretreated with compound followed by tumour implantation assessed as reduction in tumour size after 4 days relative to control. More on the design: scale not given: the % may be the effect or the level left.
In data set [16] the target is T1, Indoleamine 2,3-dioxygenase 1. The data set is described as follows: Inhibition of recombinant human His6-tagged IDO1 using L-tryptophan as substrate preincubated for 10 mins and measured after 30 mins.
The target is the same in data set [17]. Put plainly: Inhibition of recombinant human N-terminal His-tagged IDO1 expressed in Escherichia coli using L-tryptophan as substrate incubated for 60 mins by HPLC analysis.
Data set [18] has the same target. The data set is described as follows: Inhibition of IDO1 in LPS-induced human THP1 cells.
The target is the same in data set [19]. The data set is described as follows: Inhibition of recombinant human IDO1 expressed in COS1 cells by colorimetric method. It counts as cell-based.

This note sets out measurements from ChEMBL document CHEMBL4354789, “Recent advances in the discovery of indoleamine 2,3-dioxygenase 1 (IDO1) inhibitors” (Medchemcomm, 2019).

T1 sequence (P14902 whole entry): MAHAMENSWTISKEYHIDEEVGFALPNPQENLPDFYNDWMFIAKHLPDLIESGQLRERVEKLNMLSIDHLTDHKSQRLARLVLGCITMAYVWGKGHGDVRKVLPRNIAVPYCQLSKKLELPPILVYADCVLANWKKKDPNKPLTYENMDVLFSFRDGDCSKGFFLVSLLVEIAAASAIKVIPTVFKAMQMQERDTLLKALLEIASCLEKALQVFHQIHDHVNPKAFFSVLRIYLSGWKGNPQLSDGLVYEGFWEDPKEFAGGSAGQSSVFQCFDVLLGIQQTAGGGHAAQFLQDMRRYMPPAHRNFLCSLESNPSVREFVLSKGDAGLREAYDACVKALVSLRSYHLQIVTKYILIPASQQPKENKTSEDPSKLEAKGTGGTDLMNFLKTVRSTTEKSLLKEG
T2 sequence (P28776 whole entry): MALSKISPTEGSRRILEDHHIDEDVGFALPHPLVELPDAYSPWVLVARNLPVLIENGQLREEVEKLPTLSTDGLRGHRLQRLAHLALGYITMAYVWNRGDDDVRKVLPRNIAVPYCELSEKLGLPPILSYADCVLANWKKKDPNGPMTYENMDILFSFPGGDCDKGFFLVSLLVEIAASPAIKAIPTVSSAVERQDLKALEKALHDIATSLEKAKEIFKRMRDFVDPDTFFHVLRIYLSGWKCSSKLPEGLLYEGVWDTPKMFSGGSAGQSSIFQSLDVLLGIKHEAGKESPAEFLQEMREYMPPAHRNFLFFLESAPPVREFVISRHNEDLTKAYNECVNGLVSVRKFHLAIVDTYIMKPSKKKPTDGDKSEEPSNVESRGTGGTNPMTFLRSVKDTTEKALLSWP

Usually IC50 stands for the concentration that inhibits the measured activity by half. As to `COc1cc(OC(=O)c2c(C)c(O)c(OC(=O)c3c(C)cc(O)c(C)c3O)c(C)c2OC)c(C)c(C)c1C(=O)O`, the concentration for half-maximal inhibition (IC50) in [1] turned out to be 14.5 µM.

On to `NOCc1cccc(Cl)c1`, for which the IC50 in the data set on Plasmodium falciparum is 0.109 µM. As to `C[C@@]12CC[C@H](O)CC1=C(O)C(=O)c1cc3c(cc12)C(=O)C1=C(C3=O)S(=O)(=O)CCN1`, in data set [2], the half-maximal inhibitory concentration (IC50) was 4 µM. For orientation: half-life means the time in which the quantity being followed falls by half. By Tmax is commonly meant the time at which the peak concentration occurs. For the compound `Cn1cc(C[C@H](N)C(=O)O)c2ccccc21` (racemic) [(L)-1-METHYLTRYPTOPHAN], the half-life in data set [3] is 10.5 h. For the same compound, the Tmax in data set [4] stood at 2.9 h. For `CCOc1cc(C(=O)NC(=S)Nc2c(O)ccc3ccccc23)cc(OCC)c1OCC`, the half-inhibitory concentration (IC50) in data set [5] and in data set [6] was 18 µM each time. As to `Clc1ccc(Nc2cn[nH]n2)cc1`, in data set [7], the IC50 is 0.067 µM. For orientation: EC50 means the concentration needed to bring the measured effect to its halfway point. In general, Ki refers to the equilibrium dissociation constant of an inhibitor or competing ligand from its target. Regarding `CSC(=S)NCc1c[nH]c2ccc(Br)cc12`, the figures for the EC50 in data set [8] and in data set [9] were 26.1 µM and 24 µM, respectively. Also, the Ki in data set [10] was 24.5 µM. For `COC1=CC(=O)c2c(oc(C)c2CO)C1=O`, in data set [11], the IC50 amounted to 0.24 µM. As to `C[C@@H](C(=O)Nc1ccc(Cl)cc1)[C@H]1CC[C@@H](c2ccnc3ccc(F)cc32)CC1`, the “inhibition (INH)” value is over 45% in the data set with Homo sapiens [12] and over 60% in the data set with Homo sapiens [13]. Usually GI50 stands for the concentration giving 50% growth inhibition. Turning to `Nc1ccc2cc3cccc[n+]3cc2c1`, the 50% growth inhibitory concentration (GI50) with A549 amounted to 86 µM; in the data set on Jurkat it was 62 µM. This compound also displayed an IC50 in data set [14] of 0.164 µM. As to `O[C@H](C[C@H]1c2c(F)cccc2-c2cncn21)[C@H]1CC[C@H](O)CC1` [NAVOXIMOD], in data set [15], the Activity turned out to be 95%. As for `COc1nsc2c1C(=O)c1c(O)cccc1C2=O`, the IC50 in data set [16] worked out at 0.0803 µM. For `CC1(C)CCC[C@]2(C)[C@H]3CCC(C=O)C[C@H](O)[C@]3(C=O)CC[C@@H]12` (some centres not stated), the IC50 amounted to 7.7 µM in data set [17] and 0.045 µM in data set [18]. `CN1C(=O)C(Cc2c[nH]c3ccccc23)NC1=S` (configuration not stated) [NECROSTATIN]: the EC50 in data set [19] was 12.8 µM.
